According to PubChem BioAssay AID328 (DTP/NCI, 2004):
Values joined by “and” are separate entries in the source; they are usually repeats but may differ in a detail not shown here. Identical values can stand only once. Inconclusive results and toxic doses are left out.

Test system: BDF1 mice, P388 leukemia ip, median survival T/C
Experiment: NCI In Vivo Anticancer Drug Screen. Data for tumor model P388 Leukemia (intraperitoneal) in B6D2F1 (BDF1) mice
Conditions: endpoint: median survival time, higher = longer survival
How it was run: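 Vehicle-dosed animals serve as the reference; survival of compound-dosed, tumour-implanted mice is divided by it.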

[1] = dose: 100.0 mg/kg/injection, schedule: Q04DX003 (ip), vehicle: saline with Tween-80
[2] = dose: 200.0 mg/kg/injection, schedule: Q04DX003 (ip), vehicle: saline with Tween-80
[3] = dose: 400.0 mg/kg/injection, schedule: Q04DX003 (ip), vehicle: saline with Tween-80
[4] = dose: 100.0 mg/kg/injection, schedule: Q04DX003 (ip), vehicle: Klucel (hydroxypropylcellulose) (HPC)
[5] = dose: 50.0 mg/kg/injection, schedule: Q01DX009 (ip), vehicle: saline with Tween-80

Cc1ccnc(NC2=CC(=O)C(=O)c3ccccc32)c1
T/C (dose: 50.0 mg/kg/injection, schedule: Q01DX009 (ip), vehicle: saline): 100 % of control | T/C (dose: 75.0 mg/kg/injection, schedule: Q01DX009 (ip), vehicle: saline): 118 % of control | T/C (dose: 112.5 mg/kg/injection, schedule: Q01DX009 (ip), vehicle: saline): 118 % of control

CC(=O)c1c(C)oc(C)c1C(C)=O
T/C [1]: 103 % of control | T/C [2]: 111 % of control | T/C [3]: 96 % of control

Cc1ccc(S(=O)(=O)Oc2cc(C)ccc2C)cc1
T/C (dose: 25.0 mg/kg/injection, schedule: Q04DX003 (ip), vehicle: Klucel (hydroxypropylcellulose) (HPC)): 105 % of control | T/C (dose: 50.0 mg/kg/injection, schedule: Q04DX003 (ip), vehicle: Klucel (hydroxypropylcellulose) (HPC)): 95 % of control | T/C (dose: 100.0 mg/kg/injection, schedule: Q01DX009 (ip), vehicle: saline with Tween-80): 114 % of control | T/C [4]: 105 % of control | T/C (dose: 200.0 mg/kg/injection, schedule: Q01DX009 (ip), vehicle: saline with Tween-80): 109 % of control | T/C (dose: 400.0 mg/kg/injection, schedule: Q01DX009 (ip), vehicle: saline with Tween-80): 114 % of control

CCCC(C)(O)C#CC(C)(O)CCC (stereo not given)
T/C (dose: 12.5 mg/kg/injection, schedule: Q01DX009 (ip), vehicle: saline with Tween-80): 101 % of control | T/C (dose: 25.0 mg/kg/injection, schedule: Q01DX009 (ip), vehicle: saline with Tween-80): 92 % of control | T/C [5]: 93 % of control | T/C [1]: 100 % of control | T/C [2]: 104 % of control | T/C [3]: 90 % of control

S=C(NCCNC(=S)[S][Sn]([c]1ccccc1)([c]1ccccc1)[c]1ccccc1)[S][Sn]([c]1ccccc1)([c]1ccccc1)[c]1ccccc1
T/C (dose: 3.3 mg/kg/injection, schedule: Q01DX009 (ip), vehicle: saline with Tween-80): 100 % of control | T/C (dose: 5.0 mg/kg/injection, schedule: Q01DX009 (ip), vehicle: saline with Tween-80): 117 % of control | T/C (dose: 7.5 mg/kg/injection, schedule: Q01DX009 (ip), vehicle: saline with Tween-80): 108 % of control | T/C [5]: 115 % of control

COc1ccc2c(c1O)-c1c(OC)c(OC)cc3c1C(C2)N(C)CC3 (stereo not given)
T/C (dose: 5.0 mg/kg/injection, schedule: Q01DX010 (ip), vehicle: saline): 100 % of control | T/C (dose: 10.0 mg/kg/injection, schedule: Q01DX010 (ip), vehicle: saline): 95 % of control | T/C (dose: 20.0 mg/kg/injection, schedule: Q01DX010 (ip), vehicle: saline): 100 % of control | T/C (dose: 40.0 mg/kg/injection, schedule: Q01DX010 (ip), vehicle: saline): 100 % of control

CC1OC(OC2C(O)C(O)C(O)C(O)C2O)C(N)CC1N=C(N)C(=O)O (stereo not given)
T/C (dose: 100.0 mg/kg/injection, schedule: Q01DX009 (ip), vehicle: saline): 91 % of control | T/C (dose: 200.0 mg/kg/injection, schedule: Q01DX009 (ip), vehicle: saline): 100 % of control | T/C (dose: 400.0 mg/kg/injection, schedule: Q01DX009 (ip), vehicle: saline): 116 % of control

BrCc1ccc2c3c(ccc(CBr)c13)CC2
T/C (dose: 0.92 mg/kg/injection, schedule: Q04DX003 (ip), vehicle: saline): 113 % of control | T/C (dose: 3.1 mg/kg/injection, schedule: Q04DX003 (ip), vehicle: saline): 120 % of control | T/C (dose: 17.0 mg/kg/injection, schedule: Q04DX003 (ip), vehicle: Klucel (hydroxypropylcellulose) (HPC)): 154 % of control | T/C (dose: 25.0 mg/kg/injection, schedule: Q01DX009 (ip), vehicle: Klucel (hydroxypropylcellulose) (HPC)): 118 % of control | T/C (dose: 75.0 mg/kg/injection, schedule: Q01DX009 (ip), vehicle: Klucel (hydroxypropylcellulose) (HPC)): 118 % of control | T/C (dose: 100.0 mg/kg/injection, schedule: Q01DX009 (ip), vehicle: Klucel (hydroxypropylcellulose) (HPC)): 95 % of control | T/C [4]: 150 % of control | T/C (dose: 200.0 mg/kg/injection, schedule: Q04DX003 (ip), vehicle: Klucel (hydroxypropylcellulose) (HPC)): 154 % of control | T/C (dose: 300.0 mg/kg/injection, schedule: Q04DX003 (ip), vehicle: Klucel (hydroxypropylcellulose) (HPC)): 87 % of control and 100 % of control | T/C (dose: 300.0 mg/kg/injection, schedule: Q04DX003 (ip), vehicle: saline): 118 % of control | T/C (dose: 400.0 mg/kg/injection, schedule: Q04DX003 (ip), vehicle: Klucel (hydroxypropylcellulose) (HPC)): 122 % of control
